Data as given in US7718764B2, “Biologically active peptide [sequence] derivatives” (CMS Peptides Patent Holding Company Limited, priority 2004, dated 2010).

Tests used:
Masugi nephritis rabbits [1] = test: Masugi nephritis in rabbits: clearance of sheep anti-rabbit renal cortex IgG antibody (glomerular immunofluorescence); type: in vivo; conditions: saline treatment 8.7 ± 0.9
Procedure: (§1) Before the establishment of a disease state in the rabbits, measurements of serum BUN, creatinine, and urine protein over 24 hours were taken for each rabbit. If there was no abnormality in these measurements, the Masugi nephritis model was established in experimental rabbits by intravenous injection of sheep anti-rabbit renal cortex antiserum via the auricular vein, 0.5 ml per injection, one injection every 30 minutes, for a total of 4 injections per rabbit. The normal healthy (control) rabbit group was injected with saline in the same manner. Intravenous administration of the test substances via the auricular vein was started on the day after the injection of the antiserum, once per day, 1 ml per injection, for 30 consecutive days.
For observation of the effects of peptides on the clearance of sheep anti-rabbit renal cortex IgG antibody from Masugi nephritis rabbits, on the day after the last test substance administration, the rabbits were sacrificed by suffocation and the right kidney was extirpated, freeze-edged and then immunofluorescently stained for the presence of sheep IgG. The fluorescence-positive area of each glomerulus was counted. Thirty glomeruli per rabbit were examined and the average positive area per glomerulus was calculated.
(§2) Statistical significance was determined by the t-test of the SPSS software.

mice antibody formation = test: Mice antibody formation in vivo (SRBC immunisation, serum haemolysis HC50); design: species or system BALB/c mice
Procedure: The mice were randomized into three groups: peptide (200 μg/kg/day), Cyclosporine A (10 mg/kg/day), and saline (0.5 ml). Each group contained 12 mice, 6 female and 6 male. The test substances were dissolved in 0.5 ml saline and applied intraperitoneally once per day for 20 consecutive days.
Sheep red blood cells (SRBC) were resuspended with saline to 2% (v/v) and 0.2 ml of the resuspended cell solution was applied intraperitoneally to each mouse on day 16th of the test substance administration. On the day after the last test substance administration, blood was collected from the inner canthus and left at room temperature for one hour for serum exudation. After centrifugation at 200 g for 10 minutes, the serum was diluted by 200 times with normal saline.
For the preparation of the complement working solution, 10 volumes of fresh Cavy serum was added into one volume of centrifuge-packed SRBC. […]
For assay of the mice antibody titer, 0.2 ml of 1% SRBC suspension was added to 1 ml diluted ice-cold mouse serum from each mouse. […] To 1 ml of this supernatant, 3 ml Drabkin solution was added and left at room temperature for 10 minutes, and then the OD540nm was measured. The reference lysis-50 reading at OD540nm was determined by following the exact procedure as the sample, except replacing half of the SRBC with saline and without the centrifugation removal of the unlysed SRBC. […]

mice T-lymphocyte = test: Mice T-lymphocyte transformation in vivo (i.p. dosing 20 days, spleen cells + ConA, MTT, stimulation index); design: species or system BALB/c mice
Procedure: Animals were randomized into two peptide groups (200 μg/kg/day and 50 μg/kg/day), Cyclosporine A group (10 mg/kg/day), and saline group (0.5 ml/day). Each group contained 10 mice, in which half were female and half were male. All test substances were dissolved in 0.5 ml saline and administered intraperitoneally once per day for 20 days. T-lymphocyte transformation and NK cell activity were examined on the day immediately following the last injection. The day after the last test substance administration, the mice were sacrificed by cervical dislocation. The spleens were isolated aseptically and manually dispersed in 10% FBS RPMI-1640 solution using an injection needle. The dispersed cell suspension was further sieved through a 100 gauge 150 μm diameter stainless steel sieve and adjusted to 4×10^6/ml. The cell suspensions were inoculated onto a 96 wells cell culture plate, 100 μl/well with the following design. Assay wells: 100 μl cell suspension+100 μl ConA Control wells: 100 μl cell suspension+100 μl RPMI-1640 Four assay and four control wells were set up for each animal. The plates were incubated at 37° C., 5% CO2 for 68 hours. MTT was then added and the plates read at OD 570 nm referenced at 630 nm with ELISA reader. Stimulation Index SI (%)=(assay well OD/control well OD)×100%.

Masugi nephritis rabbits [2] = test: Masugi nephritis in rabbits: urine protein; type: in vivo; conditions: for proteinuria Week 0: saline treatment 11.72 ± 3.18; for proteinuria Week 1: saline treatment 122 ± 91; for proteinuria Week 2: saline treatment 160 ± 138; for proteinuria Week 3: saline treatment 145 ± 33; for proteinuria Week 4: saline treatment 157 ± 71
Procedure: as §1, with “Twenty-two healthy rabbits were randomized into 5 groups: peptide (107.3 μg/kg/day and 58.5 μg/kg/day, 4 rabbits per group), dexamethasone (0.1 mg/kg/day, 4 rabbits), saline treatment (1 ml/day, 7 rabbits), and normal healthy (3 rabbits). Before” for “Before”
Urine was collected from each rabbit over a 24 hour period once per week and the protein content determined by the sulfosalicylic acid method.
as §2

mice NK cell = test: Mice NK cell activity in vivo (i.p. dosing 20 days, spleen effector cells vs YAC-1 target cells, MTT); design: species or system BALB/c mice; conditions: for NK cell activity (%): Table 8, saline 76.0 ± 4.3
Procedure: Animals were randomized into two peptide groups (200 μg/kg/day and 50 μg/kg/day), Cyclosporine A group (10 mg/kg/day), and saline group (0.5 ml/day). Each group contained 10 mice, in which half were female and half were male. All test substances were dissolved in 0.5 ml saline and administered intraperitoneally once per day for 20 days. T-lymphocyte transformation and NK cell activity were examined on the day immediately following the last injection. YAC-1 target cells were brought to log phase and adjusted to a density of 1×10^5/ml. Mice spleen cells prepared in section 2.2.2 above were adjusted to a density of 4×10^6/ml and used as effector cells. The cell suspensions were inoculated onto 96 wells cell culture plates as follows: Effector cell wells: 100 μl spleen cell suspension+100 μl RPMI-1640 Assay wells: 100 μl spleen cell suspension+100 μl YAC-1 cell suspension Target cell wells: 100 μl YAC-1 cell suspension+100 μl RPMI-1640 Three assay wells and three effector cell wells were set up for each animal, and 12 target cell wells were set up per cell culture plate. The plates were incubated at 37° C., 5% CO2 for 4 hours, then MTT was added and the plates were read at OD 570 nm referenced at 630 nm with ELISA reader. NK cell activity (%)=1−[(assay wells OD−effector cell wells OD)/target cell wells OD]×100%

[3] = at suitable dosage, vs saline control P<0.05

Which Positive area count/glomerulus (Masugi nephritis rabbits [1]; 58.5 μg/kg/day i.v. 30 days) does the source give for PLNPK [CMS-010.26] here?
The Positive area count/glomerulus was 6.3 ± 1.4.

And the Positive area count/glomerulus (Masugi nephritis rabbits [1]; 107.3 μg/kg/day i.v. 30 days)?
Its Positive area count/glomerulus is 5.6 ± 1.2.

And the HC50 (mice antibody formation; 200 μg/kg/day i.p. 20 days, SRBC day 16, saline 167.6 ± 21.5)?
The HC50 was 141.3 ± 29.3.

What about the “Effect on mice antibody formation in vivo” value (mice antibody formation; [3]) of the same substance?
The value was “suppress”.

And the SI (mice T-lymphocyte; Table 4, 200 μg/kg/day i.p. 20 days, saline 3.63 ± 0.69)?
The SI was 2.19 ± 0.59.

And the “Effect on mice T-lymphocyte transformation in vivo” value (mice T-lymphocyte; at suitable dosages, vs saline control P<0.05)?
The value was “suppress”.

And the “proteinuria Week 0” value (Masugi nephritis rabbits [2]; 58.5 μg/kg/day i.v.)?
Its value is 9.53 ± 4.64 mg/dL.

And the “proteinuria Week 1” value (Masugi nephritis rabbits [2]; 58.5 μg/kg/day i.v.)?
The value was 77 ± 62 mg/dL.

What about the “proteinuria Week 2” value (Masugi nephritis rabbits [2]; 58.5 μg/kg/day i.v.) of the same substance?
Its value is 150 ± 123 mg/dL.

And the “proteinuria Week 3” value (Masugi nephritis rabbits [2]; 58.5 μg/kg/day i.v.)?
The value was 20 ± 12 mg/dL.

What about the “proteinuria Week 4” value (Masugi nephritis rabbits [2]; 58.5 μg/kg/day i.v.) of the same substance?
Its value is 36 ± 16 mg/dL.

And the “proteinuria Week 0” value (Masugi nephritis rabbits [2]; 107.3 μg/kg/day i.v.)?
Its value is 9.84 ± 4.29 mg/dL.

What about the “proteinuria Week 1” value (Masugi nephritis rabbits [2]; 107.3 μg/kg/day i.v.) of the same substance?
Its value is 187 ± 184 mg/dL.

What about the “proteinuria Week 2” value (Masugi nephritis rabbits [2]; 107.3 μg/kg/day i.v.) of the same substance?
The value was 114 ± 145 mg/dL.

What about the “proteinuria Week 3” value (Masugi nephritis rabbits [2]; 107.3 μg/kg/day i.v.) of the same substance?
The value was 26 ± 24 mg/dL.

And the “proteinuria Week 4” value (Masugi nephritis rabbits [2]; 107.3 μg/kg/day i.v.)?
Its value is 28 ± 32 mg/dL.

What about the “Effect on severity of proteinuria in Masugi nephritis rabbits” value (Masugi nephritis rabbits [2]; vs saline treatment control P<0.05) of the same substance?
The value was “decrease”.

What about the “NK cell activity (%)” value (mice NK cell; 50 μg/kg/day i.p. 20 days) of the same substance?
Its value is 68.5 ± 7.2 %.

What about the “NK cell activity (%)” value (mice NK cell; 200 μg/kg/day i.p. 20 days) of the same substance?
Its value is 67.7 ± 5.3 %.

What about the “Effect on mice NK cell activity in vivo (suppression)” value (mice NK cell; [3]) of the same substance?
The value was “suppress”.
